17 compounds from patent publication US9271978B2 (Zenith Epigenetics Corp., priority 2012, dated 2016) can be followed below.

What all share (set-up): key: Active: Compounds with an IC50 value less than 30 μM were deemed to be active.; Not Active: Compounds with an IC50 value less than 30 μM were deemed to be active
The target of assay [1] is T1, Brd4 bromodomain 1 (BRD4(1)) (Homo sapiens, UniProt O60885).
T1 construct: Illustrative results with the first bromodomain of Brd4; made in house; host or cells: E. coli BL21 (DE3)
Briefly: Inhibition of tetra-acetylated histone H4 binding to Brd4 bromodomain 1 (TR-FRET). The following applies: tetra-acetylated histone H4 peptide, active = IC50 <30 μM. In outline: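 IC50 values come from dose-response curves of the 665 nm to 620 nm TR-FRET signal decrease, measured after 2 h at room temperature. Reactions contained 200 nM E. coli-expressed His-tagged bromodomain, 25-50 nM biotinylated tetra-acetylated H4 peptide, Eu-streptavidin plus XL665 anti-His antibody, with 30 mM HEPES pH 7.4, 320 mM KF and 0.2% DMSO.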
For orientation: TR-FRET usually uses a lanthanide donor and a delayed reading to cut background.

In assay [2] the target is T2, second bromodomain of Brd2 (BRD2(2)) (Homo sapiens, UniProt P25440).
T2 construct: made in house; host or cells: E. coli BL21 (DE3)
The experiment in a line: Inhibition of tetra-acetylated histone H4 binding to Brd2 bromodomain 2 (TR-FRET). The following applies: tetra-acetylated histone H4 peptide, active = IC50 <30 μM. The protocol:
Proteins were cloned and overexpressed with a N-terminal 6×His tag, then purified by nickel affinity followed by size exclusion chromatography. Briefly, E. coli BL21 (DE3) cells were transformed with a recombinant expression vector encoding N-terminally Nickel affinity tagged bromodomains from Brd2, Brd3, Brd4. Cell cultures were incubated at 37° C. with shaking to the appropriate density and induced overnight with IPTG. The supernatant of lysed cells was loaded onto Ni-IDA column for purification. Eluted protein is pooled, concentrated and further purified by size exclusion chromatography. Fractions representing monomeric protein were pooled, concentrated, aliquoted, and frozen at −80° C. for use in subsequent experiments.
Binding of tetra-acetylated histone H4 and BET bromodomains was confirmed by a Time Resolved Fluorescence Resonance Energy Transfer (TR-FRET) method. N-terminally His-tagged bromodomains (200 nM) and biotinylated tetra-acetylated histone H4 peptide (25-50 nM, Millipore) were incubated in the presence of Europium Cryptate-labeled streptavidin (Cisbio Cat. #610SAKLB) and XL665-labeled monoclonal anti-His antibody (Cisbio Cat. #61HISXLB) in a white 96 well microtiter plate (Greiner). For inhibition assays, serially diluted test compound was added to these reactions in a 0.2% final concentration of DMSO. Final buffer concentrations were 30 mM HEPES pH 7.4, 30 mM NaCl, 0.3 mM CHAPS, 20 mM phosphate pH 7.0, 320 mM KF, 0.08% BSA). After a 2-h incubation at room temperature, the fluorescence by FRET was measured at 665 and 620 nm by a SynergyH4 plate reader (Biotek). Illustrative results with the first bromodomain of Brd4 and the second bromodomain of Brd2 are shown below. The binding inhibitory activity was shown by a decrease in 665 nm fluorescence relative to 620 nm. IC50 values were determined from a dose response curve.

The test system of assay [3] is hIL-6 mRNA. The experiment in a line: Inhibition of hIL-6 mRNA transcription in U937 cells. Format: cell-based, human. The following applies: LPS stimulation, active = IC50 <30 μM. As to the method:
In this example, hIL-6 mRNA in tissue culture cells was quantitated to measure the transcriptional inhibition of hIL-6 when treated with a compound of the present disclosure.
A human leukemic monocyte lymphoma cell line (U937) was plated (3.2×10^4 cells per well) in a 96-well plate in […] RPMI-1640 containing 10% FBS and penicillin/streptomycin, and differentiated into macrophages for 3 days in 60 ng/mL PMA ([…]) at 37° C. in 5% CO2 prior to the addition of the compound of interest. The cells were pretreated for 1 h with the test compound prior to stimulation with 1 ug/mL lipopolysaccharide from Escherichia coli. The cells were incubated at 37° C. for 3 h before the cells were harvested. At time of harvest, the spent media was removed from the cells and the cells were rinsed in […] PBS. Cell lysis solution (70 μL) was added the cells in each well and incubated for 5-10 min at room temperature, to allow for complete cell lysis and detachment. mRNA was then prepared using the “mRNA Catcher PLUS plate” (Invitrogen), according to the protocol supplied. After the last wash, as much wash buffer as possible was aspirated without allowing the wells to dry. Elution buffer (E3, 70 μL) was then added to each well. mRNA was then eluted by incubating the mRNA Catcher PLUS plate with Elution Buffer for 5 min at 68° C. and then immediately placing the plate on ice.
The eluted mRNA isolated was then used in a one-step quantitative real-time PCR reaction, using components of the Ultra Sense Kit together with Applied Biosystems primer-probe mixes. Real-time PCR data was analyzed, normalizing the Ct values for hIL-6 to an internal control, prior to determining the fold induction of each unknown sample, relative to the control.

Assay [4] concerns human AML MV-4-11 (CRL-9591) cells. The experiment in a line: Inhibition of cell proliferation in MV4-11 cells. The following applies: human AML MV-4-11 cells, 72 h; active = IC50 <30 μM. It is filed as cell-based. As to the method: MV4-11 cells: 96-well plates were seeded with 5×10^4 cells per well of exponentially growing human AML MV-4-11 (CRL-9591) cells and immediately treated with two-fold dilutions of test compounds, ranging from 30 μM to 0.2 μM. Triplicate wells were used for each concentration, as well as a media only and three DMSO control wells. The cells and compounds were incubated at 37° C., 5% CO2 for 72 h before adding 20 μL of the CellTiter Aqueous One Solution (Promega) to each well and incubating at 37° C., 5% CO2 for an additional 3-4 h. The absorbance was taken at 490 nm in a spectrophotometer and the percentage of proliferation relative to DMSO-treated cells was calculated after correction from the blank well. IC50 were calculated using the GraphPad Prism software.

T2 sequence (P25440 344-453 limits assumed): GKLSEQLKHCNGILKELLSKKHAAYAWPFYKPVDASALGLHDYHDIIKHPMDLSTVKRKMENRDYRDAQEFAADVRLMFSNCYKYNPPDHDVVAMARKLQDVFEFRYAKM

For the compound `Cc1cccc(Cn2cc(-c3c(C)noc3C)ccc2=O)n1` [Example 46, 5-(3,5-Dimethylisoxazol-4-yl)-1-((6-methylpyridin-2-yl)methyl)pyridin-2(1H)-one], the “FRET activity (IC50 <30 μM) BRD4(1)” value in assay [1] is “Active”. Further, the “FRET activity (IC50 <30 μM) BRD2(2)” value in assay [2] is given as “Active”. In assay [3], the “IL-6 activity (IC50 <30 μM)” value was “Active”.
Take `Cc1ccc(Cn2cc(-c3c(C)noc3C)cc(N)c2=O)cn1` [Example 258, 3-amino-5-(3,5-dimethylisoxazol-4-yl)-1-((6-methylpyridin-3-yl)methyl)pyridin-2(1H)-one]: the “FRET activity (IC50 <30 μM) BRD4(1)” value in assay [1] is “Active”. The “IL-6 activity (IC50 <30 μM)” value in assay [3] was “Active”.
For the compound `CNC(=O)c1ccc(Cn2nc(-c3c(C)noc3C)ccc2=O)cc1` [Example 89, 4-((3-(3,5-Dimethylisoxazol-4-yl)-6-oxopyridazin-1(6H)-yl)methyl)-N-methylbenzamide], the “FRET activity (IC50 <30 μM) BRD4(1)” value in assay [1] is “Active”. Further, the “FRET activity (IC50 <30 μM) BRD2(2)” value in assay [2] is on record as “Active”. Besides, the “IL-6 activity (IC50 <30 μM)” value in assay [3] was “Not Active”.
For the compound `Cc1noc(C)c1-c1ccc(=O)n(Cc2ccccc2OC(F)(F)F)n1` [Example 39, 6-(3,5-Dimethylisoxazol-4-yl)-2-(2-(trifluoromethoxy)benzyl)pyridazin-3(2H)-one], the “FRET activity (IC50 <30 μM) BRD4(1)” value in assay [1] is given as “Active”. For the same compound, the “FRET activity (IC50 <30 μM) BRD2(2)” value in assay [2] is given as “Active”. For the same compound, in assay [3], the “IL-6 activity (IC50 <30 μM)” value was “Active”.
Regarding `Cc1noc(C)c1-c1ccc(=O)n(Cc2cccc3cccnc23)n1` [Example 102, 6-(3,5-Dimethylisoxazol-4-yl)-2-(quinolin-8-ylmethyl)pyridazin-3(2H)-one], the “FRET activity (IC50 <30 μM) BRD4(1)” value in assay [1] is listed as “Active”. In addition, the “FRET activity (IC50 <30 μM) BRD2(2)” value in assay [2] is “Active”. Moreover, the “IL-6 activity (IC50 <30 μM)” value in assay [3] is recorded as “Active”.
For `Cc1noc(C)c1-c1cc(Nc2cccnn2)c(=O)n(Cc2ccccc2)c1` [Example 221, 1-benzyl-5-(3,5-dimethylisoxazol-4-yl)-3-(pyridazin-3-ylamino)pyridin-2(1H)-one], in assay [1], the “FRET activity (IC50 <30 μM) BRD4(1)” value was “Active”. Also, in assay [3], the “IL-6 activity (IC50 <30 μM)” value was “Not Active”.
Regarding `Cc1noc(C)c1-c1ccc(=O)n(Cc2ccncc2)c1` [Example 129, 5-(3,5-Dimethylisoxazol-4-yl)-1-(pyridin-4-ylmethyl)pyridin-2(1H)-one], in assay [1], the “FRET activity (IC50 <30 μM) BRD4(1)” value is “Active”. The “FRET activity (IC50 <30 μM) BRD2(2)” value in assay [2] is listed as “Active”. In assay [3], the “IL-6 activity (IC50 <30 μM)” value is on record as “Active”.
In the case of `COc1ccc(Cn2cc(-c3c(C)noc3C)ccc2=O)cc1OC` [Example 131, 1-(3,4-Dimethoxybenzyl)-5-(3,5-dimethylisoxazol-4-yl)pyridin-2(1H)-one], in assay [1], the “FRET activity (IC50 <30 μM) BRD4(1)” value was “Active”. The “FRET activity (IC50 <30 μM) BRD2(2)” value in assay [2] was “Active”. Besides, the “IL-6 activity (IC50 <30 μM)” value in assay [3] was “Active”.
Take `COc1ccc(Cn2cc(-c3c(C)noc3C)ccc2=O)cc1` [Example 130, 5-(3,5-Dimethylisoxazol-4-yl)-1-(4-methoxybenzyl)pyridin-2(1H)-one]: in assay [1], the “FRET activity (IC50 <30 μM) BRD4(1)” value was “Active”. For the same compound, in assay [2], the “FRET activity (IC50 <30 μM) BRD2(2)” value is given as “Active”. Moreover, the “IL-6 activity (IC50 <30 μM)” value in assay [3] is “Active”.
Take `Cc1noc(C)c1-c1ccc(=O)n(C(C)c2ccccc2C(F)(F)F)c1` (centres unmarked) [Example 38, 5-(3,5-Dimethylisoxazol-4-yl)-1-(1-(2-(trifluoromethyl)phenyl)ethyl)pyridin-2(1H)-one]: the “FRET activity (IC50 <30 μM) BRD4(1)” value in assay [1] was “Active”. In addition, the “FRET activity (IC50 <30 μM) BRD2(2)” value in assay [2] is listed as “Active”. The “IL-6 activity (IC50 <30 μM)” value in assay [3] was “Active”.
For the compound `Cc1cccc(Cn2cc(-c3c(C)noc3C)cc(N)c2=O)n1` [Example 244, 3-amino-5-(3,5-dimethylisoxazol-4-yl)-1-((6-methylpyridin-2-yl)methyl)pyridin-2(1H)-one], the “FRET activity (IC50 <30 μM) BRD4(1)” value in assay [1] is “Active”. Also, the “IL-6 activity (IC50 <30 μM)” value in assay [3] is given as “Active”.
Turning to `Cc1noc(C)c1-c1ccc(=O)n(C(C)c2ccccc2Cl)c1` (centres unmarked) [Example 103, 1-(1-(2-Chlorophenyl)ethyl)-5-(3,5-dimethylisoxazol-4-yl)pyridin-2(1H)-one], in assay [1], the “FRET activity (IC50 <30 μM) BRD4(1)” value is on record as “Active”. Moreover, the “FRET activity (IC50 <30 μM) BRD2(2)” value in assay [2] is “Active”. The “IL-6 activity (IC50 <30 μM)” value in assay [3] was “Not Active”.
For `Cc1noc(C)c1-c1ccc(=O)n(Cc2ccc(Cl)c(F)c2)c1` [Example 141, 1-(4-Chloro-3-fluorobenzyl)-5-(3,5-dimethylisoxazol-4-yl)pyridin-2(1H)-one], the “FRET activity (IC50 <30 μM) BRD4(1)” value in assay [1] was “Active”. In assay [2], the “FRET activity (IC50 <30 μM) BRD2(2)” value was “Active”. The “IL-6 activity (IC50 <30 μM)” value in assay [3] was “Active”.
As to `Cc1noc(C)c1-c1ccc(=O)n(Cc2ccc(Cl)cc2F)c1` [Example 139, 1-(4-Chloro-2-fluorobenzyl)-5-(3,5-dimethylisoxazol-4-yl)pyridin-2(1H)-one], the “FRET activity (IC50 <30 μM) BRD4(1)” value in assay [1] is “Active”. Further, the “FRET activity (IC50 <30 μM) BRD2(2)” value in assay [2] is given as “Active”. The “IL-6 activity (IC50 <30 μM)” value in assay [3] is recorded as “Active”.
As for `Cc1noc(C)c1-c1ccc(=O)n(Cc2ccc(F)cc2F)c1` [Example 138, 1-(2,4-Difluorobenzyl)-5-(3,5-dimethylisoxazol-4-yl)pyridin-2(1H)-one], the “FRET activity (IC50 <30 μM) BRD4(1)” value in assay [1] is given as “Active”. Moreover, the “FRET activity (IC50 <30 μM) BRD2(2)” value in assay [2] was “Active”. Further, the “IL-6 activity (IC50 <30 μM)” value in assay [3] is recorded as “Active”.
Regarding `Cc1cncc(Nc2cc(-c3c(C)noc3C)cn(Cc3ccccc3)c2=O)c1` [Example 246, 1-benzyl-5-(3,5-dimethylisoxazol-4-yl)-3-((5-methylpyridin-3-yl)amino)pyridin-2(1H)-one], the “FRET activity (IC50 <30 μM) BRD4(1)” value in assay [1] is given as “Active”. The “Cell Proliferation activity (IC50 <30 μM)” value in assay [4] was “Active”.
Consider `Cc1noc(C)c1-c1ccc(=O)n(Cc2cccnc2)c1` [Example 44, 5-(3,5-Dimethylisoxazol-4-yl)-1-(pyridin-3-ylmethyl)pyridin-2(1H)-one], for which, in assay [1], the “FRET activity (IC50 <30 μM) BRD4(1)” value was “Active”. Further, the “FRET activity (IC50 <30 μM) BRD2(2)” value in assay [2] is “Active”. For the same compound, the “IL-6 activity (IC50 <30 μM)” value in assay [3] is on record as “Not Active”.
